Our source for the activity change, negative = cytotoxicity values is PubChem BioAssay AID504726 (Broad Institute, 2011).

Calls of active or inactive are those of the source.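 The calls were made as follows: active = fitted half-maximal concentration for a cytotoxic signal drop no higher than ten times the top valid dose tested; inconclusive = flat curve between -70 and -30 percent, or an unreliable fit; inactive = flat within 30 percent, signal rise, or potency beyond limit.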

This test is described as follows: HeLa cell cytotoxicity, dose response, cytotoxicity control, 24 h, cherry-picked samples (AID 504726).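 Also: 0% = DMSO neutral controls and -100% = mitoxantrone positive controls.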 The conditions noted are these: HeLa viability, CellTiter-Glo ATP luminescence, 24 h; at 35 µM (top of the series). In general terms: Cellular ATP, detected with luciferase, serves as a proxy for viable cell number.
As for `CCOCCCn1c(SCC(=O)NC(C)(C)C)nc2ccccc2c1=O`, the activity change, negative = cytotoxicity was -18.7% (inactive).
In the case of `O=C1/C(=C/c2ccco2)Oc2c1ccc(O)c2CN1CCCCC1` it was 4.96% (inactive); in that of `Cn1cc(C(=O)c2ccc(Cl)cc2Cl)cc1C(=O)N/N=C(\N)COc1ccccc1`, -7.82% (inactive); in that of `CCn1c(O)c(N=Nc2cccc(S(=O)(=O)N3CCOCC3)c2)c(=O)n(CC)c1=S`, 7.72% (inactive).
Turning to `COC(=O)Cn1c(=NC(=O)c2sc3ccccc3c2Cl)sc2cc(S(N)(=O)=O)ccc21`, the activity change, negative = cytotoxicity was -2.51% (inactive).
Regarding `CC(C)(C)OC(=O)N1CCC[C@H]1c1nnc(SCc2cccc(Cl)c2)o1`, the activity change, negative = cytotoxicity was -8.06% (inactive).
In the case of `NC(=S)COc1ccccc1` it was -7.95% (inactive).
To `CCCc1cc(C(=O)Nc2ccc(C(=O)c3ccc(C)cc3)cc2)n(C)n1` belongs 2.14% (inactive); to `Cc1cc[n+](-c2[nH]c(=O)sc2/C=N/N=C(\[O-])c2ccccc2)cc1C`, -3.68% (inactive); to `C=CCNC(=O)c1cn(CC)c2cc(N3CCN(C(=O)c4ccco4)CC3)c(F)cc2c1=O`, 6.14% (inactive).
Turning to `CN(C)/C=N/c1nc2nccc(-c3ccc(Cl)cc3)n2n1`, the activity change, negative = cytotoxicity was -3.67% (inactive).
To `Cc1cc(/C=C2\C(=O)NC(=O)N(Cc3ccccc3)C2=O)c(C)n1-c1ccc(Cl)c(C(=O)O)c1` belongs 1.64% (inactive); to `Cn1c(=O)c(NCCc2ccccc2)c2c3c(cccc31)C(=O)c1ccccc1-2`, -38.4% (inactive).
For `O=C(O)CCN1C(=O)/C(=C\c2ccc(-c3nc4ccccc4s3)o2)SC1=S`, the activity change, negative = cytotoxicity is 1.33% (inactive).
As for `CCc1noc(C)c1C(=O)NCCc1c[nH]c2ccccc12`, the activity change, negative = cytotoxicity is -12.2% (inactive).
Turning to `Cc1nc2ccccc2n2c(O)c(CC(=O)O)cc12`, the activity change, negative = cytotoxicity was -13.5% (inactive).
With `COc1ccc(CCNC(=O)CNC(=O)Cn2ccc3ccccc3c2=O)cc1OC`, the activity change, negative = cytotoxicity is 2.19% (inactive).
In the case of `Cc1cc(/C=N/Nc2ccc([N+](=O)[O-])cn2)c(C)n1-c1cccc(C(=O)O)c1` it was -4.63% (inactive); in that of `Cc1ccc(C(=O)c2coc3ccc(O)c(Cl)c23)cc1`, -2.67% (inactive); in that of `Cc1cccnc1NC1(C(F)(F)F)N=C2SCCN2C1=O` (configuration not stated), -2.93% (inactive).
With `Cc1cccc(NC(=O)CN2C(=O)NC(C)(c3ccc4ccccc4c3)C2=O)n1` (configuration not stated), the activity change, negative = cytotoxicity is -4.54% (inactive).
On to `O=C(NCCN1CCN(C(=O)c2cccs2)CC1)c1cccs1`, for which the activity change, negative = cytotoxicity is -5.34% (inactive).
With `Nc1c(-c2ccccn2)cnn1-c1nc(-c2ccc(F)cc2)cs1`, the activity change, negative = cytotoxicity was -5.27% (inactive).
For the molecule `CCCCn1c(=O)[nH]c2nc3cc(N)ccc3nc2c1=O`, the activity change, negative = cytotoxicity is -9.99% (inactive).
In the case of `CCOC(=O)c1ccc[n+](CC(=O)c2ccc(OC)cc2)c1`, the activity change, negative = cytotoxicity was -1.73% (inactive).
As for `Fc1ccc(-c2cc(C(F)(F)F)nc(-n3cc(Cl)cn3)n2)cc1`, the activity change, negative = cytotoxicity is -12% (inactive).
In the case of `COc1cccc(OCCCn2cc(/C=C3/C(=N)N4C=C(C)SC4=NC3=O)c3ccccc32)c1` it was -7.08% (inactive).
In the case of `O=S(=O)(O)c1cc(O)c2cc(Nc3ccccc3)ccc2c1` it was -1.35% (inactive); in that of `CCOC(=O)C1Nc2ccc(C(=O)O)cc2C2C=CCC12` (configuration not stated), -9.32% (inactive); in that of `COc1cc(C(=O)O)cc(NC(=O)c2ccco2)c1OC`, -8.57% (inactive).
Consider `COC(=O)c1ccccc1NC(=O)CCS(=O)(=O)c1ccc(Br)cc1`, for which the activity change, negative = cytotoxicity was 10.1% (inactive).
Turning to `NC(=O)C1=NOC(CNc2ncc(C(F)(F)F)cc2Cl)C1` (configuration not stated), the activity change, negative = cytotoxicity was -1.63% (inactive).
To `Oc1ccc(-c2nc3ccccn3c2NCc2ccco2)cc1` belongs -4.28% (inactive); to `COc1cc(O)c(C(C)=O)c(CC(=O)O)c1`, -0.718% (inactive).
In the case of `CC(C)CN(C(=O)CSc1nncn1C)C1CCS(=O)(=O)C1` (configuration not stated) it was 4.85% (inactive); in that of `O=C(/C=N/NC(=O)c1ccc(Cl)cc1Cl)c1ccccc1`, 1.59% (inactive); in that of `NC(=S)NN=Cc1ccc(-c2ccc(S(=O)(=O)Nc3ncccn3)cc2)o1`, -14.8% (inactive).
`CC[C@H](C)[C@H](NC(N)=O)C(=O)Nc1ccc(NC(C)=O)cc1`: the activity change, negative = cytotoxicity is 6.72% (inactive).
With `O=c1[nH][nH]cc1C=Nc1ccc(Cl)cc1Cl`, the activity change, negative = cytotoxicity was -7.34% (inactive).
Consider `O=c1cc2c(=O)oc3cc(O)c(O)oc3c2c(O)c1O`, for which the activity change, negative = cytotoxicity is -7.01% (inactive).
As for `O=C(O)CN1C(=O)/C(=C\c2cc(Br)ccc2OCc2ccc([N+](=O)[O-])cc2)SC1=S`, the activity change, negative = cytotoxicity was -1.76% (inactive).
As for `CC(C)=C[C@@H]1C[C@H](C)[C@H]2CC[C@H](C)c3c(O[C@@H]4O[C@@H](C)[C@@H](O)[C@@H](O)[C@@H]4O)c(O)c(C)c1c32`, the activity change, negative = cytotoxicity is -5.47% (inactive).
For `O=C(O)c1cccc(NC2=Nc3cccc4cccc2c34)c1`, the activity change, negative = cytotoxicity is -4.32% (inactive).
Consider `O=c1c2c(nc3cc(-c4ccc(F)cc4)[nH]n13)CCC2`, for which the activity change, negative = cytotoxicity is -13.7% (inactive).
In the case of `Cc1cc(NC(=O)CSc2nnc(COc3cccc(C)c3C)n2C)no1`, the activity change, negative = cytotoxicity was 6.24% (inactive).
Regarding `CC(=O)Nc1ccc(S(=O)(=O)Nc2ccccc2N2CCOCC2)cc1`, the activity change, negative = cytotoxicity is 1.3% (inactive).
For `O=C(c1ccc2c(c1)CCN2S(=O)(=O)c1ccccc1)N1CCN(c2ccc(F)cc2)CC1`, the activity change, negative = cytotoxicity was -13.2% (inactive).
Regarding `O=C(NCc1cccnc1)C(=O)C1C(=O)Nc2ccccc21` (configuration not stated), the activity change, negative = cytotoxicity is -6.53% (inactive).
On to `CC1=NCCc2c1[nH]c1cc(O)ccc21`, for which the activity change, negative = cytotoxicity is -12.7% (inactive).
For the molecule `CCC1(c2ccccc2)NC(=O)N(CC(=O)Nc2ccc(OC)nc2)C1=O` (configuration not stated), the activity change, negative = cytotoxicity was -1.91% (inactive).
As to `O=C1CN=C(Nc2ccccc2Cl)N1Cc1ccc2c(c1)OCO2`, the activity change, negative = cytotoxicity was -6.04% (inactive).
In the case of `Cc1ccc(NC(=O)CN2C(=O)N/C(=C/c3cc(C)n(-c4ccc(C(=O)O)cc4)c3C)C2=O)cc1` it was -5.94% (inactive).
Consider `COc1cc(SC)ccc1C(=O)OCC(=O)N1CCN(C(C)=O)CC1`, for which the activity change, negative = cytotoxicity is 11.9% (inactive).
As for `O=C1/C(=C/c2ccco2)SC(=S)N1c1cccnc1`, the activity change, negative = cytotoxicity is -6.8% (inactive).
With `CCOc1ccccc1N1CCN(C(=O)c2ccc3nc(N)sc3c2)CC1`, the activity change, negative = cytotoxicity was -19.1% (inactive).
To `Cc1nnc(NC(=O)CN2C(=O)NC3(CCCC3)C2=O)s1` belongs -0.18% (inactive); to `COc1ccccc1N1CCN(S(=O)(=O)c2c(C)[nH]c(C)c2C(=O)N2CCCC2)CC1`, 3.8% (inactive).
In the case of `Cc1cccc(COc2ccc(/C=N/NC(=O)c3nnn(-c4nonc4N)c3COc3ccc(F)cc3)cc2)c1` it was -4.08% (inactive); in that of `COCCNC(=O)Nc1ccc2nc(-c3ccco3)c(-c3ccco3)nc2c1`, -18.1% (inactive); in that of `O=[N+]([O-])c1cc(-n2cnnn2)ccc1N1CCC(Cc2ccccc2)CC1`, -9.35% (inactive).
For the molecule `O=C(c1cccc(S(=O)(=O)NCc2ccccc2)c1)N1CCN(c2ccccc2Cl)CC1`, the activity change, negative = cytotoxicity is 0.089% (inactive).
Turning to `CCCc1cc(=O)oc2cc(C)cc(OCC(=O)O)c12`, the activity change, negative = cytotoxicity is -7.49% (inactive).
In the case of `CCOc1ccc(S(=O)(=O)N(C)c2ccc(OCC(=O)NC3=NCCS3)cc2)cc1`, the activity change, negative = cytotoxicity is -12.3% (inactive).
As to `Cc1ccc(NC(=O)CN(C)C(=O)c2nn(C)c(=O)c3ccccc23)cc1`, the activity change, negative = cytotoxicity was -13.7% (inactive).
Consider `N#CCCN(CCC#N)C(=O)C1c2ccccc2Oc2ccccc21`, for which the activity change, negative = cytotoxicity is -3.39% (inactive).
In the case of `O=C(NC1CCCCC1)c1cc([N+](=O)[O-])ccc1N1CCOCC1` it was -0.855% (inactive).
`CC(C(=O)Nc1ccccc1)N1C(=O)c2ccccc2C1=O` (configuration not stated): the activity change, negative = cytotoxicity is -8.7% (inactive).
As for `Cn1c(Cl)c(C(=O)Nc2ccc(Cl)cc2)c2ccccc21`, the activity change, negative = cytotoxicity is -6.51% (inactive).
In the case of `Nc1ccc2c3c(cccc13)C(=O)N(c1ccccc1)C2=O` it was 19% (inactive).
On to `O=C(COc1cccc(F)c1)Nc1nc(-c2cccnc2)cs1`, for which the activity change, negative = cytotoxicity was -21.4% (inactive).
In the case of `Nc1ccc2nonc2c1[N+](=O)[O-]` it was 2.26% (inactive); in that of `COc1ccc(NC(=O)CO/N=C2/CCCc3nonc32)c(OC)c1`, -3.9% (inactive).
Take `CN(C)C(=O)c1ccc(NC(=O)COC(=O)C2(c3ccccc3)CCCC2)cc1`: the activity change, negative = cytotoxicity was -4.12% (inactive).
Take `O=c1[nH]c(=O)n(C2CCCCC2)c(O)c1C=Nc1ccc(N2CCOCC2)cc1`: the activity change, negative = cytotoxicity is -11.5% (inactive).
On to `CN1CCN(CCCNC(=O)c2cc3c(-c4ccc(Cl)cc4)nn(C)c3s2)CC1`, for which the activity change, negative = cytotoxicity is -18.2% (inactive).
For `CC(C)C(C(=O)O)N1C(=O)/C(=C/C=C/c2ccco2)SC1=S` (configuration not stated), the activity change, negative = cytotoxicity is -14.8% (inactive).
As to `CC(C(=O)Nc1ccc(C(=O)O)c(O)c1)N1C(=O)/C(=C\c2ccco2)SC1=S` (configuration not stated), the activity change, negative = cytotoxicity is -7.47% (inactive).
